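Compound exposure: 48 hours, 5 concentrations, 96-well plates. The concentration for full growth arrest is given as TGI.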

The record followed here is PubChem BioAssay (NCI).

Test systems include SN12K1 renal; P388/ADR leukemia; P388 leukemia; LXFL 529 NSCLC; 786-0 renal; RXF-631 renal; PC-3 prostate.
Assay in all cases: NCI tumour cell line growth inhibition, 48 h

For `C=CCCCCCCCCC(=O)O`, the TGI in the experiment with SN12K1 renal is 209 µM; in the experiment on P388/ADR leukemia, 264 µM; in the experiment on P388 leukemia it was 379 µM.
`Cc1ccc(-c2cc(-c3ccco3)c(C#N)c(=O)n2C2OC(CO)C(O)C(O)C2O)cc1` (configuration not stated) gave a TGI in the experiment with LXFL 529 NSCLC greater than 100 µM.
Turning to `CN(C(=O)c1ccc(OCCCC(=O)O)c(Cl)c1Cl)C1CCCC1`, the TGI with SN12K1 renal, with P388/ADR leukemia and with P388 leukemia was greater than 100 µM in each case.
In the case of `COc1cc(C=O)cc(O)c1O`, the TGI with 786-0 renal and in the experiment with LXFL 529 NSCLC was greater than 100 µM in each case.
Regarding `CCOC(=O)C(=O)NC12CC3CC(CC(C3)C1)C2`, the TGI with RXF-631 renal and in the experiment on LXFL 529 NSCLC was greater than 100 µM throughout.
On to `COc1cccc2c1C(=O)c1c(O)c3c(c(O)c1C2=O)C[C@@](O)(C(=O)CO)CC3OC1CC(NCCCC(OC(C)=O)OC(C)=O)C(O)C(C)O1` (some centres not stated), for which the TGI is 0.000897 µM with RXF-631 renal and 0.00872 µM in the experiment on LXFL 529 NSCLC.
In turn, `CC(=O)Nc1ccc(Sc2nnc(NC(C)=O)s2)cc1` gave a TGI with PC-3 prostate greater than 100 µM.
Same read-out and setting: under `Cn1c(=O)c(Cl)c(N=[N+]=[N-])c2ccccc21` stands greater than 100 µM; under `COC1C(O)C(C)OC(OC2CCC3(C)C(CCC4C3C(O)CC3(C)C(C5=CC(=O)OC5)CCC43O)C2)C1O` (configuration not stated), 5.17 µM; under `O=C1c2ccccc2C(=O)N1CC(CN1C(=O)c2ccccc2C1=O)(C(=O)OCc1ccccc1)C(=O)OCc1ccccc1`, greater than 100 µM.
